Test systems include COLO 205; HCC 2998; HOP-92; HT-29; K562; M14; MOLT-4; Malme-3M; NCI-H522; OVCAR-3; OVCAR-8; RXF 393; SF-539; SK-MEL-28; SN12C; SNB-19; SW-620; U-251; UACC-257.
Common to all, as to assay: NCI-60 cell line screen, 48 h

Consider 11 compounds from ChEMBL document CHEMBL1201862, “PubChem BioAssay data set” (2004).

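Cultured in 96-well plates, cells were exposed to test compound for 48 hours across five concentrations. Here, GI50 denotes the concentration required for 50% inhibition of growth.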 Calls of active or inactive are those of the source. No stated cut-off is given here; in the data, active = GI50 up to about 1.1 µM and inactive = higher. A value given as a limit tells only on which side of the number the result lay.

Take `O=C(CO[N+](=O)[O-])OCC(=O)c1ccccc1`: the GI50 with COLO 205, in the test on HCC 2998, in the test on HOP-92, in the test with HT-29, with K562 and in the test with M14 was > 100 µM (inactive) each time. Also, the GI50 with MOLT-4, in the test with Malme-3M, with NCI-H522, with OVCAR-3, in the test on OVCAR-8 and in the test on RXF 393 was > 100 µM (inactive) throughout. In addition, the GI50 in the test with SF-539, with SK-MEL-28, in the test with SN12C, in the test with SNB-19, with SW-620 and in the test with U-251 was > 100 µM (inactive) each time. For the same compound, the GI50 in the test with UACC-257 is > 100 µM (inactive).
Consider `Cc1cc(=O)oc2cc(OCc3nc4ccccc4c(=O)n3-c3ccccc3)ccc12`, for which the GI50 in the test with COLO 205 is > 100 µM (inactive); in the test with HCC 2998 it was > 100 µM (inactive); in the test on HOP-92 it was 28.1 µM (inactive); with HT-29, > 100 µM (inactive); in the test with K562, > 100 µM (inactive); with M14 it was > 100 µM (inactive). Further, the GI50 in the test with MOLT-4 is > 100 µM (inactive); in the test on Malme-3M, > 100 µM (inactive); in the test on NCI-H522 it was > 100 µM (inactive); in the test with OVCAR-3 it was > 100 µM (inactive); with OVCAR-8 it was 45.1 µM (inactive); with RXF 393 it was 34 µM (inactive). In addition, the GI50 in the test with SF-539 was > 100 µM (inactive); in the test with SK-MEL-28, > 100 µM (inactive); with SN12C, > 100 µM (inactive); in the test with SNB-19, 27.5 µM (inactive); in the test with SW-620 it was > 100 µM (inactive); with U-251 it was 54.7 µM (inactive).
Turning to `CCOc1ccc(NC(=O)/C(Cc2nc3ccccc3nc2O)=N\O)cc1`, the GI50 with COLO 205 was > 100 µM (inactive); in the test with HCC 2998, > 100 µM (inactive); in the test on HOP-92 it was 54.2 µM (inactive); with K562, > 100 µM (inactive); with M14, > 100 µM (inactive); in the test on MOLT-4, > 100 µM (inactive). For the same compound, the GI50 with Malme-3M, with NCI-H522, in the test with OVCAR-3, with OVCAR-8, with RXF 393 and in the test on SF-539 was > 100 µM (inactive) throughout. The GI50 in the test with SK-MEL-28, with SNB-19, in the test on SW-620, with U-251 and in the test on UACC-257 was > 100 µM (inactive) throughout.
For the compound `CCOC(=O)C1S/C(=N\c2ccc(Cl)cc2)N=C1C` (stereo unspecified), the GI50 was 17.5 µM (inactive) in the test with COLO 205; 17.7 µM (inactive) in the test with HCC 2998; 15.9 µM (inactive) with HOP-92; 17.1 µM (inactive) in the test on HT-29; 19.4 µM (inactive) in the test on K562; 16.7 µM (inactive) in the test with MOLT-4. The GI50 with Malme-3M was 19.9 µM (inactive); in the test on NCI-H522, 17.3 µM (inactive); in the test on OVCAR-3, 23.6 µM (inactive); in the test with OVCAR-8, 22.3 µM (inactive); in the test with RXF 393, 16.6 µM (inactive); with SF-539 it was 17.9 µM (inactive). The GI50 in the test with SK-MEL-28 was 20.5 µM (inactive); in the test on SN12C it was 17.5 µM (inactive); with SNB-19, 19.2 µM (inactive); with SW-620, 19.9 µM (inactive); in the test with U-251 it was 18.8 µM (inactive); with UACC-257 it was > 10 µM (inactive).
On to `N/N=C(\CC1OC(=O)c2ccccc21)c1ccco1` (stereo unspecified), for which the GI50 in the test on COLO 205 was > 100 µM (inactive); with HCC 2998, > 100 µM (inactive); with HOP-92 it was > 100 µM (inactive); in the test on HT-29, > 100 µM (inactive); in the test with K562, 50 µM (inactive); with M14, > 100 µM (inactive). In addition, the GI50 in the test on MOLT-4, in the test on Malme-3M, in the test with NCI-H522, in the test with OVCAR-3, in the test with RXF 393 and in the test with SF-539 was > 100 µM (inactive) each time. Further, the GI50 with SK-MEL-28, in the test with SNB-19, in the test on SW-620 and with UACC-257 was > 100 µM (inactive) in each case.
As for `O=C(O)C1CCCCC1C(=O)Nn1cnnc1` (stereo unspecified), the GI50 with COLO 205, in the test with HCC 2998, with HOP-92, in the test with HT-29, with K562 and in the test with M14 was > 100 µM (inactive) in each case. Moreover, the GI50 in the test on MOLT-4, in the test on NCI-H522, in the test with OVCAR-3, with OVCAR-8, in the test with RXF 393 and with SF-539 was > 100 µM (inactive) throughout. The GI50 with SK-MEL-28, with SN12C, in the test with SNB-19, in the test with SW-620, in the test with U-251 and with UACC-257 was > 100 µM (inactive) throughout.
Turning to `Nn1c(S)nnc1NNC(=O)C(=O)Nc1cc(Cl)c(Cl)cc1Cl`, the GI50 in the test with COLO 205 was > 100 µM (inactive); in the test on HCC 2998, > 100 µM (inactive); in the test on HOP-92 it was > 100 µM (inactive); in the test on HT-29, > 100 µM (inactive); with K562, 0.012 µM (active); in the test on M14, > 100 µM (inactive). In addition, the GI50 in the test with Malme-3M, with NCI-H522, in the test with OVCAR-3, with OVCAR-8, in the test on RXF 393 and with SF-539 was > 100 µM (inactive) in each case. Moreover, the GI50 in the test with SK-MEL-28, in the test on SN12C, with SNB-19, in the test with SW-620, with U-251 and with UACC-257 was > 100 µM (inactive) throughout.
Consider `CC(=O)OCC1OC(O[C@@H]2C[C@H]3C(C)(C)[C@H](OC(C)=O)CC[C@]3(C)[C@H]3CC[C@]4(C)C(=CC[C@H]4[C@@H](C)C[C@@H](O)[C@H](O)C(C)(C)O)[C@@]32C)C(O)C(O)C1O` (stereo partly specified), for which the GI50 was 14 µM (inactive) with COLO 205; 20.8 µM (inactive) in the test with HCC 2998; 17 µM (inactive) in the test with HOP-92; 17.4 µM (inactive) in the test on HT-29; 18.3 µM (inactive) with K562; 21.3 µM (inactive) in the test on M14. The GI50 in the test with MOLT-4 is 16.8 µM (inactive); in the test with Malme-3M, 17.8 µM (inactive); with NCI-H522 it was 1.67 µM (inactive); in the test on OVCAR-3 it was 15.4 µM (inactive); with OVCAR-8, 17.3 µM (inactive); in the test on SF-539, 16.4 µM (inactive). The GI50 in the test with SK-MEL-28 is 15.9 µM (inactive); in the test with SN12C it was 17.5 µM (inactive); in the test with SNB-19, 15.1 µM (inactive); in the test on SW-620, 17.9 µM (inactive); in the test with U-251 it was 12.7 µM (inactive); in the test with UACC-257, 19 µM (inactive).
As for `CC(C)(C)c1cc(Oc2ccc(C#N)c(C#N)c2)cc(C(C)(C)C)c1`, the GI50 in the test with COLO 205 is > 100 µM (inactive); in the test with HCC 2998, > 100 µM (inactive); with HOP-92, > 100 µM (inactive); in the test with HT-29, > 100 µM (inactive); in the test with K562, 83.2 µM (inactive); in the test on M14 it was > 100 µM (inactive). Moreover, the GI50 in the test with MOLT-4 was > 100 µM (inactive); with Malme-3M, > 100 µM (inactive); with NCI-H522 it was 36.1 µM (inactive); with OVCAR-3 it was > 100 µM (inactive); with OVCAR-8, > 100 µM (inactive); in the test on RXF 393, > 100 µM (inactive). Moreover, the GI50 was > 100 µM (inactive) in the test on SF-539; > 100 µM (inactive) with SK-MEL-28; > 100 µM (inactive) in the test on SN12C; > 100 µM (inactive) in the test with SNB-19; 85.5 µM (inactive) in the test on U-251; > 100 µM (inactive) in the test with UACC-257.
For the compound `CN(C(=O)c1cc2c(s1)sc1c(=O)n(C)c3ccccc3c12)c1ccccc1`, the GI50 was > 100 µM (inactive) in the test with COLO 205; 4.66 µM (inactive) in the test on HCC 2998; 42.4 µM (inactive) in the test with HOP-92; 2.77 µM (inactive) in the test on HT-29; 2.51 µM (inactive) in the test on K562; 50.9 µM (inactive) with M14. Besides, the GI50 is 3.63 µM (inactive) in the test on MOLT-4; 6.56 µM (inactive) with Malme-3M; 4.41 µM (inactive) in the test with NCI-H522; 7.83 µM (inactive) with OVCAR-3; 11.2 µM (inactive) in the test on OVCAR-8; 21.8 µM (inactive) with RXF 393. The GI50 is 5.45 µM (inactive) with SF-539; > 100 µM (inactive) in the test on SK-MEL-28; 34.8 µM (inactive) in the test on SN12C; 31.3 µM (inactive) in the test on SNB-19; 10.9 µM (inactive) with U-251; 29.4 µM (inactive) with UACC-257.
For `O=C(Nc1ccc(Cl)c(Cl)c1)C(=O)Nn1c(S)nc2ccccc2c1=O`, the GI50 with COLO 205 is > 100 µM (inactive); in the test with HCC 2998, > 100 µM (inactive); in the test with HOP-92, 45.3 µM (inactive); in the test on HT-29 it was > 100 µM (inactive); in the test with K562, > 100 µM (inactive); with M14, > 100 µM (inactive). The GI50 in the test with MOLT-4, with Malme-3M, in the test on NCI-H522, with OVCAR-8, in the test on RXF 393 and in the test with SF-539 was > 100 µM (inactive) throughout. In addition, the GI50 with SK-MEL-28, in the test with SN12C, in the test with SNB-19, in the test on SW-620, in the test on U-251 and with UACC-257 was > 100 µM (inactive) each time.
